What was measured:
[1] = test system: primary human CAFs (CAF1 and CAF2); experiment: Cell proliferation assay (CellTiter-Glo) in CAFs; assay type: cell-based; conditions: 72 hrs
Procedure: Cells were seeded at a density of 5000 cells (PDAC1 and PDAC2), or 3000 cells (CAF1 and CAF2) per well in 96-well flat-bottomed plates and incubated for 24 h in culture medium. […] Control cells received dimethyl sulfoxide (DMSO) at a concentration equal to that of drug-treated cells for 72 hours. The cell viability was determined by CellTiter-Glo® 2.0 Assay (Promega) following the manufacturer's instructions.

Pin1 = Pin1 (Homo sapiens, UniProt Q13526); experiment: Immunoblotting for Pin1 and substrate oncoproteins in CAFs; assay type: cell-based; parameters: endogenous in cells; conditions: 72 hrs
Procedure: Cultured cells were lysed in RIPA buffer (50 mM Tris-HCl, pH 7.2, 150 mM NaCl, 1% NP40, 0.1% sodium dodecyl sulfate (SDS), 0.25% Na-deoxycholate) with freshly added phosphatase inhibitors containing 5 mM NaF and 0.2 mM sodium orthovanadate (NA3VO4), and proteinase inhibitors containing 2 μg/mL Aprotinin, 2 μg/mL Leupeptin, 2 μg/mL Pepstatin A, 1 mM DTT (dithiothreitol), 0.5 mM 4-(2-aminoethyl)-benzenesulfonyl fluoride (AEBSF), and 20 mM Chymotrypsin, and then mixed with the SDS sample buffer and loaded onto a gel after boiling for 10 minutes at 95° C. The proteins were resolved by polyacrylamide gel electrophoresis and transferred to PVDF membrane. The transferred membrane was washed three times with Tris-buffered saline containing 0.1% Tween 20 (TBST). After blocking with TBST containing 5% milk or 3% bovine serum albumin (BSA) for 1 h room temperature, the membrane was incubated with the appropriate primary antibody (diluted 1:500-1:10000) in 5% milk or 3% BSA-containing TBST at 4° C. overnight. […] After three extensive washes with TBST for a total of 30 min, the immunoblots were visualized by enhanced chemi-luminescence. Immunoblotting results were quantified using ImageJ (NIH).

[2] = test system: patient-derived PDAC tumors in PDTX mice; experiment: Patient-derived tumor orthotopic xenograft (PDTX) mouse model; assay type: in vivo
Excerpt: Allelic profiling of resulting KPC mice by the B6 panel (Jackson Laboratories) confirmed 129S1/SvImJ with average match of 84.2%, 129S4SvJae with average match of 83.8%, B6N with average match of 65.7% and B6J, with average match of 65.1%. 2) the KPC Genetically engineered mouse-derived orthotopic allografts (GDA) mouse model (Hingorani et al., Cancer Cell 7, 469-483 (2005); Li et al., Comput Struct Biotechnol J 17, 498-506 (2019)). Mouse PDAC cells were established from KPC mouse pancreatic tumor tissues, followed by orthotopically injecting 1×10^6 mouse PDAC cells in 50 μL Matrigel (356231, Coaning) into the pancreas of female 8 week-old syngeneic immunocompetent C57BL/6 mice (Jackson Laboratories). 3) PDAC Patient-derived Tumor orthotopic xenografted (PDTX) mouse model (Gilles et al., Clin Cancer Res 24, 1734-1747 (2018); Rubio-Viqueira et al., Clin Cancer Res 12, 4652-4661 (2006)). PDAC PDX tumors were obtained from Dr. Muthuswamy and Dr. Hidalgo and divided into 4×2 mm pieces, followed by xenografting orthotopically into the pancreas of female 8-week-old immunodeficient NOD.Cg-Prkdc^scid Il12rg^tm1Wjl/SzJ (NOD scid gamma; NSG) mice (Jackson Laboratories). 4) PDAC Patient-derived Organoid and CAFs orthotopic xenograft (PDOX) mouse model (Dantes et al., JCI Insight 5, 137809 (2020); (Koikawa et al., Cancer letters 425, 65-77 (2018)). 5×10^4 patient derived PDAC organoids and 5×10^4 patient derived CAFs in 50 μL of Matrigel were injected orthotopically into the pancreas of female 8 week-old immunodeficient NSG mice (Jackson Laboratories).
Briefly, all mice were randomly selected to receive treatments groups. Tumor sizes were measured by weekly palpation with electronic caliper or ultrasound, and when tumors were reached >0.5 cm, the treatment was started. Briefly, animals were placed under general anesthesia with 2%-3% isoflurane once a week. Under general anesthesia, the abdominal wall became very flaccid, and the muscle tone of the mouse was very low. The mouse was scuffed with the left hand to allow for palpation and measurement with the right hand. This allowed to detect the firm pancreatic mass by palpation, and to determine its size by electronic caliper measurements. […] In the GDA model and PDX models, palpable tumors predictably were detectable within 4-7 days post implantation. […] When the tumor by palpation after age 12 weeks could not be detected, the mice were monitored by ultrasound. Once the maximum length >0.5 cm tumor was detected, the mice were randomized to treatment, and then followed tumor growth by electronic caliper measurement. To validate the external caliper measurements, the tumor size was measured prior to euthanization of the mice and then measured the actual tumor size upon necropsy to ascertain concordance. […]

advanced PDAC patients = conditions: cited from earlier work

Pin1, sequence (Q13526 whole entry): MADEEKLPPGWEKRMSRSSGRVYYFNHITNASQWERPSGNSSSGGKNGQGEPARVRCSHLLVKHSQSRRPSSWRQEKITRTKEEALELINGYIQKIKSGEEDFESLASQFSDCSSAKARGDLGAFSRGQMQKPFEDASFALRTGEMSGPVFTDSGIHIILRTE

Structure (SMILES) | CAF proliferation (cell growth) [1] | Pin1 and its substrate oncoproteins (IB) (Pin1) | CAF activation (IF for αSMA or PDGFRα) ([2]; PDTX mice, 4 weeks) | collagen deposition (Sirius Red staining) ([2]; PDTX mice, 4 weeks) | tumor growth ([2]; overt tumor-bearing PDTX mice, 4 weeks) | overall survival (OS) (advanced PDAC patients) | response rate (advanced PDAC patients) | Median survival ([2]; PDTX mice, FIG. 8M, GEM 20 mg/kg, n=6, vehicle 36 days)
CC(C)(C)CN(C(=O)CCl)C1CCS(=O)(=O)C1 (centres unmarked) [Pin1i−2, sulfopin] | suppression of CAF proliferation | dose-dependently reduced Pin1 and its many substrate oncoproteins | significantly reduced | significantly reduced | significantly reduced tumor growth |  |  | 
Nc1ccn([C@@H]2O[C@H](CO)[C@@H](O)C2(F)F)c(=O)n1 [GEM, gemcitabine, reference compound] |  |  |  |  |  | 6.6 month | 23.8% | 42.5 days

Reference: patent US20250319053A1, “INHIBITORS OF THE PEPTIDYL-PROLYL CIS/TRANS ISOMERASE (PIN1), COMBINATIONS AND USES THEREOF” (DANA-FARBER CANCER INSTITUTE, INC., priority 2021, published 2025)
